{
  "source": "patent US12606541B2",
  "about": "“PPARg modulators and methods of use” (Eisai R&D Management Co., Ltd., priority 2020, dated 2026)",
  "key": {"UM-UC-9 engineered cells": {"test_system": "UM-UC-9 engineered cells", "assay": "Cell proliferation / short-term viability assay, CellTiter-Glo 144 h", "assay_type": "cell-based, human", "settings": "read-out: CTGlo 144 h UMUC9.5, G150", "procedure,_shortened": "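Viability read by CellTiter-Glo 2.0 luminescence at day 7 versus DMSO-vehicle wells and a T0 plate measured on day 0. Cells: UM-UC-9 engineered assay-ready stocks, 500 cells/well in high-glucose DMEM with 10% FBS, 37° C, 5% CO2.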"}, "His6-TEV-PPARγ-(234-505)": {"biological_target": "T1, His6-TEV-PPARγ-(234-505) (Homo sapiens, UniProt P37231)", "T1 construct": "The His6-TEV-PPARγ-(234-505) protein for assay was expressed and purified; TEV cleavage site (N); made in house", "T1 sequence (P37231 234-505)": "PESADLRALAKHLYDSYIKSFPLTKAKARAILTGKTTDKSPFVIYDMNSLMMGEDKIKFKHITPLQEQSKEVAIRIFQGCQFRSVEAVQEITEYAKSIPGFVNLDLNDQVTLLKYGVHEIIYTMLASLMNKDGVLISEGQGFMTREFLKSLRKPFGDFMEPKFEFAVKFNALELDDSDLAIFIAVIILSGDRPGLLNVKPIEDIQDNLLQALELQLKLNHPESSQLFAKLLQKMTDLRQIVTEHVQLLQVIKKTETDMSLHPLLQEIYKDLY", "assay": "TR-FRET Assay to Measure Co-R Peptide Recruitment to PPARγ", "assay_type": "biochemical", "settings": "Co-R peptide (SMRT-ID2) recruitment; top final concentration 20 μM; read-out: TR-FRET i-Ag; AC50", "procedure,_shortened": "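Corepressor recruitment is measured by adding terbium-labeled anti-His antibody and FITC SMRT-ID2 peptide, at 5 and 200 nM final, after a 20-minute room-temperature protein–compound incubation. After one further hour, signal is converted to percent response between DMSO and 500 nM T0070907 wells.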"}},
  "data": [
    {"molecule": "COc1cc(-c2cc(C(=O)N3CCC(C(=O)NC4CN(CC(C)(C)F)CC4(F)F)CC34CC4)n[nH]2)c(F)cn1", "note": "(mixture of isomers) [Example 379, (S)—N—((S)-4,4-difluoro-1-(2-fluoro-2-methylpropyl)pyrrolidin-3-yl)-4-(5-(5-fluoro-2-methoxypyridin-4-yl)-1H-pyrazole-3-carbonyl)-4-azaspiro[2.5]octane-7-carboxamide and (S)—N—((R)-4,4-difluoro-1-(2-fluoro-2-methylpropyl)pyrrolidin-3-yl)-4-(5-(5-fluoro-2-methoxypyridin-4-yl)-1H-pyrazole-3-carbonyl)-4-azaspiro[2.5]octane-7-carboxamide]", "values": [
      {"measurement": "IC50", "setting": "UM-UC-9 engineered cells", "value": 11, "unit": "nM"},
      {"measurement": "AC50", "setting": "His6-TEV-PPARγ-(234-505)", "value": 12.2, "unit": "nM"}
    ]},
    {"molecule": "COc1cc(-c2cc(C(=O)N3CCC(C(=O)NC4CCOc5ccc(C)nc54)CC34CC4)n[nH]2)c(F)cn1", "note": "(mixture of isomers) [Example 380, (S)-4-(5-(5-fluoro-2-methoxypyridin-4-yl)-1H-pyrazole-3-carbonyl)-N—((R)-6-methyl-3,4-dihydro-2H-pyrano[3,2-b]pyridin-4-yl)-4-azaspiro[2.5]octane-7-carboxamide and (S)-4-(5-(5-fluoro-2-methoxypyridin-4-yl)-1H-pyrazole-3-carbonyl)-N—((S)-6-methyl-3,4-dihydro-2H-pyrano[3,2-b]pyridin-4-yl)-4-azaspiro[2.5]octane-7-carboxamide]", "values": [
      {"measurement": "IC50", "setting": "UM-UC-9 engineered cells", "value": 43.7, "unit": "nM"},
      {"measurement": "AC50", "setting": "His6-TEV-PPARγ-(234-505)", "value": 30.6, "unit": "nM"}
    ]},
    {"molecule": "COc1cc(-c2cc(C(=O)N3CCC(C(=O)NCC4CCc5[nH]nc(C)c5C4)CC34CC4)n[nH]2)c(F)cn1", "note": "(mixture of isomers) [Example 382, (S)-4-(5-(5-fluoro-2-methoxypyridin-4-yl)-1H-pyrazole-3-carbonyl)-N—(((S)-3-methyl-4,5,6,7-tetrahydro-1H-indazol-5-yl)methyl)-4-azaspiro[2.5]octane-7-carboxamide and (S)-4-(5-(5-fluoro-2-methoxypyridin-4-yl)-1H-pyrazole-3-carbonyl)-N—(((R)-3-methyl-4,5,6,7-tetrahydro-1H-indazol-5-yl)methyl)-4-azaspiro[2.5]octane-7-carboxamide]", "values": [
      {"measurement": "IC50", "setting": "UM-UC-9 engineered cells", "value": 10, "unit": "nM"},
      {"measurement": "AC50", "setting": "His6-TEV-PPARγ-(234-505)", "value": 4, "unit": "nM"}
    ]},
    {"molecule": "COc1cc(-c2cc(C(=O)N3CCC(C(=O)NC4CCOc5cc(F)cnc54)CC34CC4)n[nH]2)c(F)cn1", "note": "(mixture of isomers) [Example 383, (S)-4-(5-(5-fluoro-2-methoxypyridin-4-yl)-1H-pyrazole-3-carbonyl)-N—((R)-7-fluoro-3,4-dihydro-2H-pyrano[3,2-b]pyridin-4-yl)-4-azaspiro[2.5]octane-7-carboxamide and (S)-4-(5-(5-fluoro-2-methoxypyridin-4-yl)-1H-pyrazole-3-carbonyl)-N—((S)-7-fluoro-3,4-dihydro-2H-pyrano[3,2-b]pyridin-4-yl)-4-azaspiro[2.5]octane-7-carboxamide]", "values": [
      {"measurement": "IC50", "setting": "UM-UC-9 engineered cells", "value": 43.1, "unit": "nM"},
      {"measurement": "AC50", "setting": "His6-TEV-PPARγ-(234-505)", "value": 33.1, "unit": "nM"}
    ]},
    {"molecule": "COc1cc(-c2cc(C(=O)N3CCC(C(=O)NC4CCN(c5cccnc5)C4)CC34CC4)n[nH]2)c(F)cn1", "note": "(mixture of isomers) [Example 390, (S)-4-(5-(5-fluoro-2-methoxypyridin-4-yl)-1H-pyrazole-3-carbonyl)-N—((R)-1-(pyridin-3-yl)pyrrolidin-3-yl)-4-azaspiro[2.5]octane-7-carboxamide and (S)-4-(5-(5-fluoro-2-methoxypyridin-4-yl)-1H-pyrazole-3-carbonyl)-N—((S)-1-(pyridin-3-yl)pyrrolidin-3-yl)-4-azaspiro[2.5]octane-7-carboxamide]", "values": [
      {"measurement": "IC50", "setting": "UM-UC-9 engineered cells", "value": 7.1, "unit": "nM"},
      {"measurement": "AC50", "setting": "His6-TEV-PPARγ-(234-505)", "value": 4.2, "unit": "nM"}
    ]},
    {"molecule": "COc1cc(-c2cc(C(=O)N3CCC(C(=O)NC4CCN(C5COC5)C4)CC34CC4)n[nH]2)c(F)cn1", "note": "(mixture of isomers) [Example 396, (S)-4-(5-(5-fluoro-2-methoxypyridin-4-yl)-1H-pyrazole-3-carbonyl)-N—((R)-1-(oxetan-3-yl)pyrrolidin-3-yl)-4-azaspiro[2.5]octane-7-carboxamide and (S)-4-(5-(5-fluoro-2-methoxypyridin-4-yl)-1H-pyrazole-3-carbonyl)-N—((S)-1-(oxetan-3-yl)pyrrolidin-3-yl)-4-azaspiro[2.5]octane-7-carboxamide]", "values": [
      {"measurement": "IC50", "setting": "UM-UC-9 engineered cells", "value": 293, "unit": "nM"},
      {"measurement": "AC50", "setting": "His6-TEV-PPARγ-(234-505)", "value": 97.7, "unit": "nM"}
    ]},
    {"molecule": "COc1cc(-c2cc(C(=O)N3CCC(C(=O)NC(C)C45CCC(O)(CC4)CC5)CC34CC4)n[nH]2)c(F)cn1", "note": "(mixture of isomers) [Example 411, (S)-4-(5-(5-fluoro-2-methoxypyridin-4-yl)-1H-pyrazole-3-carbonyl)-N—((R)-1-(4-hydroxybicyclo[2.2.2]octan-1-yl)ethyl)-4-azaspiro[2.5]octane-7-carboxamide and (S)-4-(5-(5-fluoro-2-methoxypyridin-4-yl)-1H-pyrazole-3-carbonyl)-N—((S)-1-(4-hydroxybicyclo[2.2.2]octan-1-yl)ethyl)-4-azaspiro[2.5]octane-7-carboxamide]", "values": [
      {"measurement": "IC50", "setting": "UM-UC-9 engineered cells", "value": 60.1, "unit": "nM"},
      {"measurement": "AC50", "setting": "His6-TEV-PPARγ-(234-505)", "value": 37.2, "unit": "nM"}
    ]},
    {"molecule": "COc1cc(-c2cc(C(=O)N3CCC(C(=O)NC(C)c4cn5c(n4)COCC5)CC34CC4)n[nH]2)c(F)cn1", "note": "(mixture of isomers) [Example 415, (S)—N—((S)-1-(5,6-dihydro-8-imidazo[2,1-c][1,4]oxazin-2-yl)ethyl)-4-(5-(5-fluoro-2-methoxypyridin-4-yl)-1H-pyrazole-3-carbonyl)-4-azaspiro[2.5]octane-7-carboxamide and (S)—N—((R)-1-(5,6-dihydro-8H-imidazo[2,1-c][1,4]oxazin-2-yl)ethyl)-4-(5-(5-fluoro-2-methoxypyridin-4-yl)-1H-pyrazole-3-carbonyl)-4-azaspiro[2.5]octane-7-carboxamide]", "values": [
      {"measurement": "IC50", "setting": "UM-UC-9 engineered cells", "value": 524, "unit": "nM"},
      {"measurement": "AC50", "setting": "His6-TEV-PPARγ-(234-505)", "value": 163, "unit": "nM"}
    ]},
    {"molecule": "COc1cc(-c2cc(C(=O)N3CCC(C(=O)NC4CCC(C)(C)N(C)C4)CC34CC4)n[nH]2)c(F)cn1", "note": "(mixture of isomers) [Example 424, (S)-4-(5-(5-fluoro-2-methoxypyridin-4-yl)-1H-pyrazole-3-carbonyl)-N—((R)-1,6,6-trimethylpiperidin-3-yl)-4-azaspiro[2.5]octane-7-carboxamide and (S)-4-(5-(5-fluoro-2-methoxypyridin-4-yl)-1H-pyrazole-3-carbonyl)-N—((S)-1,6,6-trimethylpiperidin-3-yl)-4-azaspiro[2.5]octane-7-carboxamide]", "values": [
      {"measurement": "IC50", "setting": "UM-UC-9 engineered cells", "value": 1950, "unit": "nM"},
      {"measurement": "AC50", "setting": "His6-TEV-PPARγ-(234-505)", "value": 942, "unit": "nM"}
    ]},
    {"molecule": "COc1cc(-c2cc(C(=O)N3CCC(C(=O)NC4CCN(CCF)C(C)(C)C4)CC34CC4)n[nH]2)c(F)cn1", "note": "(mixture of isomers) [Example 425, (S)-4-(5-(5-fluoro-2-methoxypyridin-4-yl)-1H-pyrazole-3-carbonyl)-N—((S)-1-(2-fluoroethyl)-2,2-dimethylpiperidin-4-yl)-4-azaspiro[2.5]octane-7-carboxamide and (S)-4-(5-(5-fluoro-2-methoxypyridin-4-yl)-1H-pyrazole-3-carbonyl)-N—((R)-1-(2-fluoroethyl)-2,2-dimethylpiperidin-4-yl)-4-azaspiro[2.5]octane-7-carboxamide]", "values": [
      {"measurement": "IC50", "setting": "UM-UC-9 engineered cells", "value": "> 10000", "unit": "nM"},
      {"measurement": "AC50", "setting": "His6-TEV-PPARγ-(234-505)", "value": 901, "unit": "nM"}
    ]},
    {"molecule": "COc1cc(-c2cc(C(=O)N3CCC(C(=O)NC4CN(C5CCOC5)C4)CC34CC4)n[nH]2)c(F)cn1", "note": "(mixture of isomers) [Example 433, (S)-4-(5-(5-fluoro-2-methoxypyridin-4-yl)-1H-pyrazole-3-carbonyl)-N-(1-((S)-tetrahydrofuran-3-yl)azetidin-3-yl)-4-azaspiro[2.5]octane-7-carboxamide and (S)-4-(5-(5-fluoro-2-methoxypyridin-4-yl)-1H-pyrazole-3-carbonyl)-N-(1-((R)-tetrahydrofuran-3-yl)azetidin-3-yl)-4-azaspiro[2.5]octane-7-carboxamide]", "values": [
      {"measurement": "IC50", "setting": "UM-UC-9 engineered cells", "value": 695, "unit": "nM"},
      {"measurement": "AC50", "setting": "His6-TEV-PPARγ-(234-505)", "value": 89.6, "unit": "nM"}
    ]},
    {"molecule": "COc1cc(-c2cc(C(=O)N3CCC(C(=O)Nc4cnn5ccc(C(C)O)nc45)CC34CC4)n[nH]2)c(F)cn1", "note": "(mixture of isomers) [Example 445, (S)-4-(5-(5-fluoro-2-methoxypyridin-4-yl)-1H-pyrazole-3-carbonyl)-N-(5-((R)-1-hydroxyethyl)pyrazolo[1,5-a]pyrimidin-3-yl)-4-azaspiro[2.5]octane-7-carboxamide and (S)-4-(5-(5-fluoro-2-methoxypyridin-4-yl)-1H-pyrazole-3-carbonyl)-N-(5-((S)-1-hydroxyethyl)pyrazolo[1,5-a]pyrimidin-3-yl)-4-azaspiro[2.5]octane-7-carboxamide]", "values": [
      {"measurement": "IC50", "setting": "UM-UC-9 engineered cells", "value": 22.4, "unit": "nM"},
      {"measurement": "AC50", "setting": "His6-TEV-PPARγ-(234-505)", "value": 1.2, "unit": "nM"}
    ]},
    {"molecule": "COc1cc(-c2cc(C(=O)N3CCC(C(=O)NC4CCN(c5ccnc6[nH]ncc56)C4)CC34CC4)n[nH]2)c(F)cn1", "note": "(mixture of isomers) [Example 450, (S)—N—((S)-1-(1H-pyrazolo[3,4-b]pyridin-4-yl)pyrrolidin-3-yl)-4-(5-(5-fluoro-2-methoxypyridin-4-yl)-1H-pyrazole-3-carbonyl)-4-azaspiro[2.5]octane-7-carboxamide and (S)—N—((R)-1-(1H-pyrazolo[3,4-b]pyridin-4-yl)pyrrolidin-3-yl)-4-(5-(5-fluoro-2-methoxypyridin-4-yl)-1H-pyrazole-3-carbonyl)-4-azaspiro[2.5]octane-7-carboxamide]", "values": [
      {"measurement": "IC50", "setting": "UM-UC-9 engineered cells", "value": 114, "unit": "nM"},
      {"measurement": "AC50", "setting": "His6-TEV-PPARγ-(234-505)", "value": 1.5, "unit": "nM"}
    ]}
  ]
}
